Source: the NIST ThermoML archive (doi:10.1016/j.jct.2009.11.011)
± gives the expanded uncertainty stated by the source.

Key:
[1] = Liquid; for mass density: Vibrating tube method; for vapor or sublimation pressure: Ebulliometric method (Recirculating still)
[2] = molar heat capacity at saturation pressure; details: Liquid

c1ccc2c(c1)cnc1ccccc12 [phenanthridine]
Details | mass density [kg/m3] | molar heat capacity [J/K/mol] | vapor or sublimation pressure [kPa]
[1], 423.11 K | 1081.8 ± 1.1 | – | –
[1], 448.11 K | 1062.7 ± 1.1 | – | –
[1], 473.11 K | 1043.7 ± 1 | – | –
[1], 473.89 K | – | – | 2 ± 0.01
[1], 481.92 K | – | – | 2.666 ± 0.011
[1], 493.84 K | – | – | 4 ± 0.011
[1], 498.11 K | 1023.7 ± 1 | – | –
[1], 502.72 K | – | – | 5.333 ± 0.011
[1], 515.93 K | – | – | 7.999 ± 0.012
[1], 523.11 K | 1003.9 ± 1 | – | –
[1], 525.85 K | – | – | 10.67 ± 0.013
[1], 533.86 K | – | – | 13.33 ± 0.014
[1], 542.18 K | – | – | 16.66 ± 0.015
[1], 548.11 K | 983.7 ± 1 | – | –
[1], 549.09 K | – | – | 19.93 ± 0.016
[1], 558.18 K | – | – | 25.02 ± 0.018
[1], 567.34 K | – | – | 31.18 ± 0.02
[1], 576.54 K | – | – | 38.56 ± 0.022
[1], 585.79 K | – | – | 47.38 ± 0.025
[1], 595.1 K | – | – | 57.82 ± 0.029
[1], 604.47 K | – | – | 70.12 ± 0.033
[1], 613.89 K | – | – | 84.53 ± 0.038
[1], 623.35 K | – | – | 101.33 ± 0.041
[2], 400 K | – | 314.5 ± 3.2 | –
[2], 410 K | – | 319.1 ± 3.2 | –
[2], 420 K | – | 323.8 ± 3.2 | –
[2], 430 K | – | 328.3 ± 3.2 | –
[2], 440 K | – | 332.9 ± 3.3 | –
[2], 450 K | – | 337.4 ± 3.4 | –
[2], 460 K | – | 341.8 ± 3.4 | –
[2], 470 K | – | 346.2 ± 3.5 | –
[2], 480 K | – | 350.6 ± 3.5 | –
[2], 490 K | – | 354.9 ± 3.6 | –
[2], 500 K | – | 359.2 ± 3.6 | –
[2], 510 K | – | 363.4 ± 3.7 | –
[2], 520 K | – | 367.6 ± 3.7 | –
[2], 530 K | – | 371.7 ± 3.7 | –
[2], 540 K | – | 375.7 ± 3.7 | –
[2], 550 K | – | 379.7 ± 3.8 | –
[2], 560 K | – | 383.7 ± 3.8 | –
[2], 570 K | – | 387.6 ± 3.9 | –
[2], 580 K | – | 391.4 ± 3.9 | –
[2], 590 K | – | 395.2 ± 4 | –
[2], 600 K | – | 398.8 ± 4 | –

c1ccc2c(c1)ccc1cccnc12 [benzo[h]quinoline]
Details | mass density [kg/m3] | molar heat capacity [J/K/mol]
[1], 348.13 K | 1121.1 ± 0.11 | –
[1], 373.12 K | 1104.9 ± 0.11 | –
[1], 398.12 K | 1087.2 ± 0.1 | –
[1], 423.11 K | 1068.1 ± 0.1 | –
[1], 448.11 K | 1051.1 ± 0.1 | –
[1], 473.11 K | 1030.8 ± 0.1 | –
[1], 498.11 K | 1011.6 ± 0.1 | –
[1], 523.11 K | 992.8 ± 0.12 | –
[2], 400 K | – | 307.8 ± 3.1
[2], 410 K | – | 312.9 ± 3.2
[2], 420 K | – | 317.9 ± 3.2
[2], 430 K | – | 323.1 ± 3.2
[2], 440 K | – | 328.2 ± 3.2
[2], 450 K | – | 333.3 ± 3.3
[2], 460 K | – | 338.4 ± 3.4
[2], 470 K | – | 343.5 ± 3.4
[2], 480 K | – | 348.5 ± 3.5
[2], 490 K | – | 353.5 ± 3.6
[2], 500 K | – | 358.4 ± 3.6
[2], 510 K | – | 363.3 ± 3.7
[2], 520 K | – | 368.1 ± 3.7
[2], 530 K | – | 372.7 ± 3.7
[2], 540 K | – | 377.2 ± 3.7
[2], 550 K | – | 381.6 ± 3.8
[2], 560 K | – | 385.8 ± 3.8
[2], 570 K | – | 389.7 ± 3.9
[2], 580 K | – | 393.4 ± 3.9
[2], 590 K | – | 396.9 ± 4
[2], 600 K | – | 400 ± 4
